Results from PubChem BioAssay (NCI).
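Here, GI50 denotes the concentration required for 50% inhibition of growth. At the TGI there is no net growth.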

Legend:
Assay in all cases: NCI-60 cell line screen, 384-well format
[1] = test system: K-562 leukemia
[2] = test system: LOX IMVI melanoma
[3] = test system: MALME-3M melanoma
[4] = test system: BT-549 breast
[5] = test system: NCI/ADR-RES ovarian
[6] = test system: HOP-92 NSCLC
[7] = test system: EKVX NSCLC
[8] = test system: A549 NSCLC
[9] = test system: T-47D breast
[10] = test system: SK-MEL-5 melanoma
[11] = test system: COLO 205 colon
[12] = test system: MDA-MB-231 breast
[13] = test system: MDA-MB-468 breast
[14] = test system: MCF7 breast
[15] = test system: OVCAR-4 ovarian
[16] = test system: PC-3 prostate
[17] = test system: DU-145 prostate
[18] = test system: RPMI-8226 leukemia
[19] = test system: HCT-15 colon
[20] = test system: HL-60(TB) leukemia
[21] = test system: UACC-257 melanoma
[22] = test system: 786-0 renal
[23] = test system: CCRF-CEM leukemia
[24] = test system: SR leukemia
[25] = test system: NCI-H23 lung
[26] = test system: NCI-H322M lung
[27] = test system: HT29 colon
[28] = test system: UO-31 renal
[29] = test system: NCI-H226 lung
[30] = test system: M14 melanoma
[31] = test system: SF-295 CNS
[32] = test system: NCI-H522 lung
[33] = test system: RXF 393 renal
[34] = test system: MOLT-4 leukemia
[35] = test system: OVCAR-8 ovarian
[36] = test system: MDA-MB-435 melanoma
[37] = test system: SF-268 CNS
[38] = test system: HS 578T breast
[39] = test system: HOP-62 NSCLC
[40] = test system: UACC-62 melanoma
[41] = test system: SNB-75 CNS
[42] = test system: SN12C renal
[43] = test system: SK-MEL-28 melanoma
[44] = test system: HCC-2998 colon
[45] = test system: NCI-H460 NSCLC
[46] = test system: IGROV1 ovarian
[47] = test system: KM12 colon
[48] = test system: TK-10 renal
[49] = test system: SNB-19 CNS
[50] = test system: ACHN renal
[51] = test system: SW-620 colon
[52] = test system: CAKI-1 renal
[53] = test system: OVCAR-3 ovarian
[54] = test system: OVCAR-5 ovarian
[55] = test system: SK-OV-3 ovarian
[56] = test system: A498 renal
[57] = test system: U251 glioblastoma
[58] = test system: SF-539 CNS
[59] = test system: HCT-116 colon

In the case of `CC(C)(O)c1ccc(N2CCN(c3nnc(Cc4ccccc4)c4ccccc34)CC2)nc1`, the GI50 [1] is reported as 4.85 µM, the GI50 [2] is reported as 9.67 µM and the GI50 [3] is reported as 3.24 µM. For the same molecule, the GI50 [4] was 6.9 µM, the GI50 [5] was 3.02 µM and the GI50 [6] was 8.09 µM. For the same molecule, the GI50 [7] was 4.39 µM, the GI50 [8] was 5.79 µM and the GI50 [9] was 1.92 µM. It also gave a TGI [9] of 6.25 µM, a GI50 [10] of 2.17 µM and a TGI [10] of 4.19 µM. For the same molecule, the GI50 [11] was 4.39 µM, the GI50 [12] was 3.22 µM and the GI50 [13] was 1.62 µM. For the same molecule, the TGI [13] was 4.37 µM, the GI50 [14] was 7.42 µM and the GI50 [15] was 3.75 µM. For the same molecule, the GI50 [16] was 9.46 µM, the GI50 [17] was 5.86 µM and the GI50 [18] was 2.18 µM. For the same molecule, the TGI [18] was 5.27 µM, the GI50 [19] was 7.34 µM and the GI50 [20] was 2.68 µM. The TGI [20] was 5.16 µM, the GI50 [21] was 5.3 µM and the GI50 [22] was 6.92 µM. For the same molecule, the GI50 [23] was 3.83 µM, the GI50 [24] was 2.08 µM and the TGI [24] was 5.25 µM. The GI50 [25] was 4.38 µM, the GI50 [26] was 8.82 µM and the GI50 [27] was 9.38 µM. For the same molecule, the GI50 [28] was 6.13 µM, the GI50 [29] was 6.6 µM and the GI50 [30] was 8.59 µM. For the same molecule, the GI50 [31] was 7.65 µM, the GI50 [32] was 6.23 µM and the GI50 [33] was 6.29 µM. The GI50 [34] was 2.07 µM, the TGI [34] was 3.86 µM and the GI50 [35] was 5.64 µM.
`NC(=O)[C@H]1CCN(c2ncnc(N)c2F)C[C@@H]1N1CCC[C@@H](Nc2cc(Cl)cc(C(F)(F)F)c2)C1=O` showed a GI50 [1] of 8.33 µM, a TGI [1] of 20.9 µM and a GI50 [36] of 19.9 µM. The TGI [36] was 67.1 µM, the GI50 [2] was 11.2 µM and the TGI [2] was 23.4 µM. The GI50 [3] was 14.5 µM, the TGI [3] was 28.5 µM and the GI50 [37] was 3.26 µM. It also gave a TGI [37] of 10.5 µM, a GI50 [4] of 15.6 µM and a TGI [4] of 31.6 µM. The GI50 [5] was 47.6 µM, the TGI [5] was > 100 µM and the GI50 [38] was 17.4 µM. For the same molecule, the TGI [38] was 39.3 µM, the GI50 [6] was 13.8 µM and the TGI [6] was 33.7 µM. It also gave a GI50 [7] of 12.2 µM, a TGI [7] of 39.4 µM and a GI50 [8] of 10.3 µM. The TGI [8] was 25 µM, the GI50 [9] was 6.32 µM and the TGI [9] was 23.2 µM. For the same molecule, the GI50 [10] was 9.85 µM, the TGI [10] was 21.6 µM and the GI50 [39] was 13.6 µM. The TGI [39] was 35.8 µM, the GI50 [40] was 6.7 µM and the TGI [40] was 19.7 µM. It also gave a GI50 [41] of 12.5 µM, a TGI [41] of 34.2 µM and a GI50 [42] of 8.02 µM. For the same molecule, the TGI [42] was 38.4 µM, the GI50 [11] was 7.06 µM and the TGI [11] was 21.5 µM. For the same molecule, the GI50 [43] was 15.4 µM, the TGI [43] was 32.5 µM and the GI50 [44] was 13.6 µM. It also gave a TGI [44] of 28.5 µM, a GI50 [12] of 10.7 µM and a TGI [12] of 39.7 µM. It also gave a GI50 [13] of 2.21 µM, a TGI [13] of 11.9 µM and a GI50 [45] of 13.4 µM. For the same molecule, the TGI [45] was 27.1 µM, the GI50 [14] was 14.5 µM and the TGI [14] was 36.3 µM. For the same molecule, the GI50 [15] was 19.9 µM, the TGI [15] was 64.8 µM and the GI50 [16] was 11.6 µM. The TGI [16] was 46.8 µM, the GI50 [17] was 15.6 µM and the TGI [17] was 53.1 µM. It also gave a GI50 [46] of 2.34 µM, a TGI [46] of 17.4 µM and a GI50 [18] of 11 µM. It also gave a TGI [18] of 23.1 µM, a GI50 [19] of 8.54 µM and a TGI [19] of 32.7 µM. The GI50 [20] was 10.8 µM, the TGI [20] was 22.7 µM and the GI50 [47] was 4.29 µM. For the same molecule, the TGI [47] was 30.7 µM, the GI50 [48] was 14.8 µM and the TGI [48] was 37.5 µM. It also gave a GI50 [21] of 14.9 µM, a TGI [21] of 28.5 µM and a GI50 [22] of 15.6 µM. The TGI [22] was 53.4 µM, the GI50 [23] was 10.2 µM and the TGI [23] was 22.1 µM. The GI50 [49] was 30 µM, the TGI [49] was > 100 µM and the GI50 [25] was 14.8 µM. The TGI [25] was 32.2 µM, the GI50 [50] was 7.86 µM and the TGI [50] was 25.9 µM. The GI50 [51] was 15.2 µM, the TGI [51] was 31.9 µM and the GI50 [26] was 21.3 µM. It also gave a TGI [26] of 52 µM, a GI50 [27] of 7.05 µM and a TGI [27] of 22 µM. The GI50 [28] was 20.3 µM, the TGI [28] was 57.4 µM and the GI50 [29] was 10.9 µM. It also gave a TGI [29] of 34.5 µM, a GI50 [30] of 10.9 µM and a TGI [30] of 24.4 µM. For the same molecule, the GI50 [31] was 14.5 µM, the TGI [31] was 31.6 µM and the GI50 [32] was 5.3 µM. For the same molecule, the TGI [32] was 17.9 µM, the GI50 [52] was 11.5 µM and the TGI [52] was 54.3 µM. It also gave a GI50 [53] of 16.3 µM, a TGI [53] of 35.4 µM and a GI50 [54] of 12.9 µM. For the same molecule, the TGI [54] was 40.2 µM, the GI50 [55] was 6.43 µM and the TGI [55] was 40.1 µM. For the same molecule, the GI50 [56] was 12.5 µM, the TGI [56] was 29.2 µM and the GI50 [33] was 3.44 µM. It also gave a TGI [33] of 13.4 µM, a GI50 [57] of 17.2 µM and a TGI [57] of 60 µM. The GI50 [34] was 1.85 µM, the TGI [34] was 6.1 µM and the GI50 [35] was 21.5 µM. It also gave a TGI [35] of 73.6 µM, a GI50 [58] of 14.5 µM and a TGI [58] of 33.8 µM. It also gave a GI50 [59] of 9.04 µM and a TGI [59] of 22 µM.
